# Results: US9212168B2 (priority 2011, dated 2015)
# Key:
# HCV genotype 1b replicon = HCV genotype 1b replicon assay (Renilla luciferase readout); type: cell-based, hepatitis C virus; conditions: for Genotype 1b: HCV genotype 1b replicon
# Description: Assay 1: HCV Genotype 1b Replicon Assay
# The HCV genotype 1b replicon cell line was obtained from Apath LLC (Brooklyn, N.Y.) (APC144; Huh7 cell background). This subgenomic replicon contains the N-terminus of the HCV core protein fused to the neomycin-resistance selectable marker. The EMCV IRES lies downstream and drives expression of humanized Renilla luciferase fused to the non-structural proteins NS3-NS5B. This cell line was used to determine compound potency using the luciferase activity readout as a measurement of compound inhibition of replicon levels.
# Cells were grown at 37° C. in a 5% CO2 humidified incubator in DMEM (Invitrogen) with 10% FBS (HyClone), 1×NEAA (Invitrogen), 1× Pen-Strep (Invitrogen), and 500 μg/mL G418 (Invitrogen). On day 1 of the assay, cells were plated at 10,000 cells/well in white 96-well tissue culture plates (Costar) in 200 μL media lacking G418. Four hours later, once the cells have adhered, the media was removed and replaced with media (no G418) containing dose-responses of test compounds. Compounds were initially diluted in DMSO and then diluted another 200× in media to bring the final DMSO concentration down to 0.5%. The cells were incubated with test compounds for 48 hours. At the end of the incubation period, media and compound were removed from the plates and the luciferase activity was determined using Promega Renilla-Glo reagents.
# To analyze the data, the luciferase activity was plotted vs. the compound concentration, and EC50 values were determined from a 4-parameter robust fit model with the GraphPad Prism software package (GraphPad Software, Inc., San Diego, Calif.). Results are expressed as the negative decadic logarithm of the EC50 value, pEC50.
# Test compounds having a higher pEC50 value in this assay show greater inhibition of HCV genotype 1b replication.
# HCV genotype 1a replicon = HCV genotype 1a replicon assay (NS3 protease activity readout); type: cell-based, hepatitis C virus; conditions: for Genotype 1a: HCV genotype 1a replicon
# Method in brief: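 EC50 values came from a 4-parameter robust fit of fluorescence (ex 340, em 509 nm) produced by NS3-specific protease in lysates, assayed with 15 μM FRET substrate for 20 min at 37° C, after 48 or 72 hours of compound exposure (0.5% DMSO) of Huh7.5-derived APC89 genotype 1a replicon cells.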
Compound,Genotype 1b (HCV genotype 1b replicon),Genotype 1a (HCV genotype 1a replicon),"EC50 (HCV genotype 1b replicon; Hepatitis C virus, read-out: Genotype 1b)","EC50 (HCV genotype 1a replicon; Hepatitis C virus, read-out: Genotype 1a, HCV genotype 1a replicon)"
COC(=O)N[C@H](C(=O)N1C[C@@H](N(C)C)C[C@H]1c1nc(-c2ccc(-c3ccc(NC(=O)c4ccc(N5CCN(C(=O)[C@]6(C)CCCN6C(C)=O)C[C@H]5C)nc4)cc3)cc2)c[nH]1)C(C)C [Example 2-2],"C (C represents pEC50 between and 9 and about 10, (EC50 between 1 nM and 0.1 nM))","C (C represents pEC50 between and 9 and about 10, (EC50 between 1 nM and 0.1 nM))",–,–
COC(=O)N[C@H](C(=O)N1C[C@@H](N(C)C)C[C@H]1c1nc(-c2ccc(-c3ccc(NC(=O)c4ccc(N5CCN(C(=O)[C@H]6CC6(C)C)C[C@H]5C)nc4)cc3)cc2)c[nH]1)C(C)C [Example 2-3],D (D represents pEC50>10 (EC50<0.1 nM)),D (D represents pEC50>10 (EC50<0.1 nM)),–,–
CNC(=O)N1CCN(c2ccc(C(=O)Nc3ccc(-c4ccc(-c5c[nH]c([C@@H]6C[C@H](N(C)C)CN6C(=O)[C@@H](NC(=O)OC)C(C)C)n5)cc4)c(C)c3)cn2)[C@H](C)C1 [Example 2-5],D (D represents pEC50>10 (EC50<0.1 nM)),"C (C represents pEC50 between and 9 and about 10, (EC50 between 1 nM and 0.1 nM))",–,–
"COC(=O)N[C@H](C(=O)N1C[C@@H](C)C[C@H]1c1nc(-c2ccc(-c3cc(Cl)c(NC(=O)c4ccc(N5C[C@H](C)N(C(=O)c6c[nH]cn6)C[C@H]5C)nc4)cc3C(F)(F)F)cc2)c[nH]1)C(C)C [Example 3, [(S)-1-((2S,4S)-2-{4-[5′-Chloro-4′-({6-[(2R,5S)-4-(1H-imidazole-4-carbonyl)-2,5-dimethyl-piperazin-1-yl]-pyridine-3-carbonyl}-amino)-2′-trifluoromethyl-biphenyl-4-yl]-1H-imidazol-2-yl}-4-methyl-pyrrolidine-1-carbonyl)-2-methyl-propyl]-carbamic acid methyl ester]",–,–,< 100 pM,< 100 pM
COC(=O)N[C@H](C(=O)N1C[C@@H](C)C[C@H]1c1nc(-c2ccc(-c3ccc(C(=O)Nc4ccc(N5CCN(C(=O)[C@H]6CC6(C)C)C[C@H]5C)nc4)cc3)cc2)c[nH]1)C(C)C [Example 4-1],D (D represents pEC50>10 (EC50<0.1 nM)),D (D represents pEC50>10 (EC50<0.1 nM)),–,–
COC(=O)N[C@H](C(=O)N1C[C@@H](C)C[C@H]1c1nc(-c2ccc(-c3ccc(C(=O)Nc4ccc(N5CCN(C(=O)[C@]6(C)CCCN6C(=O)[C@@H](NC(=O)OC)C(C)C)C[C@H]5C)nc4)cc3)cc2)c[nH]1)C(C)C [Example 4-2],D (D represents pEC50>10 (EC50<0.1 nM)),D (D represents pEC50>10 (EC50<0.1 nM)),–,–
COCC(=O)N1CCC[C@@]1(C)C(=O)N1CCN(c2ccc(NC(=O)c3ccc(-c4ccc(-c5c[nH]c([C@@H]6C[C@H](C)CN6C(=O)[C@@H](NC(=O)OC)C(C)C)n5)cc4)c(OC(F)(F)F)c3)cn2)[C@H](C)C1 [Example 4-4],D (D represents pEC50>10 (EC50<0.1 nM)),D (D represents pEC50>10 (EC50<0.1 nM)),–,–
COC(=O)N[C@H](C(=O)N1C[C@@H](C)C[C@H]1c1nc(-c2ccc(-c3ccc(C(=O)Nc4ccc(N5CCN(C(=O)[C@]6(C)CCCN6C(=O)OC(C)C)C[C@H]5C)nc4)cc3OC(F)(F)F)cc2)c[nH]1)C(C)C [Example 4-5],D (D represents pEC50>10 (EC50<0.1 nM)),D (D represents pEC50>10 (EC50<0.1 nM)),–,–
CNC(=O)N1CCC[C@@]1(C)C(=O)N1CCN(c2ccc(NC(=O)c3ccc(-c4ccc(-c5c[nH]c([C@@H]6C[C@H](C)CN6C(=O)[C@@H](NC(=O)OC)C(C)C)n5)cc4)c(OC(F)(F)F)c3)cn2)[C@H](C)C1 [Example 4-6],D (D represents pEC50>10 (EC50<0.1 nM)),D (D represents pEC50>10 (EC50<0.1 nM)),–,–
COC(=O)N[C@H](C(=O)N1C[C@@H](C)C[C@H]1c1nc(-c2ccc(-c3ccc(C(=O)Nc4ccc(N5CCN(C(=O)[C@]6(C)CCCN6C(=O)[C@H](NC(=O)OC)C(C)C)C[C@H]5C)nc4)cc3OC(F)(F)F)cc2)c[nH]1)C(C)C [Example 4-7],D (D represents pEC50>10 (EC50<0.1 nM)),D (D represents pEC50>10 (EC50<0.1 nM)),–,–
COCC(=O)N1CCC[C@@]1(C)C(=O)N1C[C@@H](C)N(c2ccc(NC(=O)c3ccc(-c4ccc(-c5c[nH]c([C@@H]6C[C@H](C)CN6C(=O)[C@@H](NC(=O)OC)C(C)C)n5)cc4)c(OC(F)(F)F)c3)cn2)C[C@@H]1C [Example 4-8],D (D represents pEC50>10 (EC50<0.1 nM)),D (D represents pEC50>10 (EC50<0.1 nM)),–,–
COC(=O)N[C@H](C(=O)N1C[C@@H](C)C[C@H]1c1nc(-c2ccc(-c3ccc(C(=O)Nc4ccc(N5C[C@H](C)N(C(=O)[C@H]6CC6(C)C)C[C@H]5C)nc4)cc3OC(F)(F)F)cc2)c(Cl)[nH]1)C(C)C [Example 4-10],D (D represents pEC50>10 (EC50<0.1 nM)),D (D represents pEC50>10 (EC50<0.1 nM)),–,–
COC(=O)N[C@H](C(=O)N1C[C@@H](C)C[C@H]1c1nc(-c2ccc(-c3ccc(C(=O)Nc4ccc(N5C[C@H](C)N(C(=O)C6CC6)C[C@H]5C)nc4)cc3OC(F)(F)F)cc2)c(Cl)[nH]1)C(C)C [Example 4-11],D (D represents pEC50>10 (EC50<0.1 nM)),D (D represents pEC50>10 (EC50<0.1 nM)),–,–
CNC(=O)N1C[C@@H](C)N(c2ccc(NC(=O)c3ccc(-c4ccc(-c5nc([C@@H]6C[C@H](C)CN6C(=O)[C@@H](NC(=O)OC)C(C)C)[nH]c5Cl)cc4)c(OC(F)(F)F)c3)cn2)C[C@@H]1C [Example 4-12],D (D represents pEC50>10 (EC50<0.1 nM)),D (D represents pEC50>10 (EC50<0.1 nM)),–,–
CNC(=O)N1C[C@@H](C)N(c2ccc(NC(=O)c3ccc(-c4ccc(-c5c[nH]c([C@@H]6C[C@H](C)CN6C(=O)[C@@H](NC(=O)OC)C(C)C)n5)cc4)c(OC(F)(F)F)c3)cn2)C[C@@H]1C [Example 4-14],D (D represents pEC50>10 (EC50<0.1 nM)),"C (C represents pEC50 between and 9 and about 10, (EC50 between 1 nM and 0.1 nM))",–,–
COC(=O)N[C@H](C(=O)N1C[C@@H](C)C[C@H]1c1nc(-c2ccc(-c3ccc(C(=O)Nc4ccc(N5C[C@H](C)N(C(=O)C6CC6)C[C@H]5C)nc4)cc3OC(F)(F)F)cc2)c[nH]1)C(C)C [Example 4-16],D (D represents pEC50>10 (EC50<0.1 nM)),"C (C represents pEC50 between and 9 and about 10, (EC50 between 1 nM and 0.1 nM))",–,–
COC(=O)N[C@H](C(=O)N1C[C@@H](C)C[C@H]1c1nc(-c2ccc(-c3ccc(C(=O)Nc4ccc(N5C[C@H](C)N(C(=O)C6CC6C)C[C@H]5C)nc4)cc3OC(F)(F)F)cc2)c[nH]1)C(C)C (some centres unmarked) [Example 4-17],D (D represents pEC50>10 (EC50<0.1 nM)),"C (C represents pEC50 between and 9 and about 10, (EC50 between 1 nM and 0.1 nM))",–,–
COC(=O)N[C@H](C(=O)N1C[C@@H](C)C[C@H]1c1nc(-c2ccc(-c3ccc(C(=O)Nc4ccc(N5C[C@H](C)N(C(=O)[C@H]6CCCN6C(=O)C6CC6)C[C@H]5C)nc4)cc3OC(F)(F)F)cc2)c[nH]1)C(C)C [Example 4-18],D (D represents pEC50>10 (EC50<0.1 nM)),D (D represents pEC50>10 (EC50<0.1 nM)),–,–
CNC(=O)N1CCC[C@@H]1C(=O)N1C[C@@H](C)N(c2ccc(NC(=O)c3ccc(-c4ccc(-c5c[nH]c([C@@H]6C[C@H](C)CN6C(=O)[C@@H](NC(=O)OC)C(C)C)n5)cc4)c(OC(F)(F)F)c3)cn2)C[C@@H]1C [Example 4-19],D (D represents pEC50>10 (EC50<0.1 nM)),D (D represents pEC50>10 (EC50<0.1 nM)),–,–
COC(=O)N[C@H](C(=O)N1C[C@@H](C)C[C@H]1c1nc(-c2ccc(-c3ccc(C(=O)Nc4ccc(N5C[C@H](C)N(C(=O)[C@H]6CCCN6C(=O)NC(C)C)C[C@H]5C)nc4)cc3OC(F)(F)F)cc2)c[nH]1)C(C)C [Example 4-20],D (D represents pEC50>10 (EC50<0.1 nM)),"C (C represents pEC50 between and 9 and about 10, (EC50 between 1 nM and 0.1 nM))",–,–
CCC(=O)N1CCC[C@@H]1C(=O)N1C[C@@H](C)N(c2ccc(NC(=O)c3ccc(-c4ccc(-c5c[nH]c([C@@H]6C[C@H](C)CN6C(=O)[C@@H](NC(=O)OC)C(C)C)n5)cc4)c(OC(F)(F)F)c3)cn2)C[C@@H]1C [Example 4-21],D (D represents pEC50>10 (EC50<0.1 nM)),D (D represents pEC50>10 (EC50<0.1 nM)),–,–
COC(=O)N[C@H](C(=O)N1C[C@@H](C)C[C@H]1c1nc(-c2ccc(-c3ccc(C(=O)Nc4ccc(N5C[C@H](C)N(C(=O)[C@@]6(O)CC6(C)C)C[C@H]5C)nc4)cc3OC(F)(F)F)cc2)c(Cl)[nH]1)C(C)C [Example 4-37],D (D represents pEC50>10 (EC50<0.1 nM)),D (D represents pEC50>10 (EC50<0.1 nM)),–,–
